In ChEMBL document CHEMBL5331104, “Discovery of BRD4-HDAC Dual Inhibitors with Improved Fungal Selectivity and Potent Synergistic Antifungal Activity against Fluconazole-Resistant Candida albicans” (J Med Chem, 2023):
pIC50: −log10 of the molar value. Values after ≈ are worked out from the molar mass of the structure shown. Active and inactive are the calls of the source. The calls are words filed in the database; no cut-off is given here.

Legend:
K562 = assay: Antiproliferative activity against human K562 cells incubated for 48 hrs by CCK8 assay; assay type: functional, cell-based; conditions: K562, 48 h
Candida albicans [1] = assay: Downregulation of CDR2 expression in Candida albicans 0304103 at 32 ug/mL incubated for 24 hrs in the presence of fluconazole by RT q-PCR analysis; assay type: functional; conditions: dose 32.0 µg/ml
Candida albicans [2] = assay: Synergetic antifungal activity against Candida albicans 9884 assessed as fractional inhibitory concentration index incubated for 24 hrs in the presence of fluconazole by checkerboard microdilution method; assay type: functional
[Candida] auris [3] = Synergetic antifungal activity against Candida auris 0029 assessed as microbial growth inhibition incubated for 24 hrs in the presence of fluconazole by checkerboard microdilution method; assay type: functional; conditions: Candidozyma auris
Histone deacetylase 1 = Histone deacetylase 1 (Homo sapiens, UniProt Q13547); assay: Inhibition of full-length recombinant human HDAC1 (1 to 482 residues) expressed in baculovirus infected insect cells using […] as substrate incubated for 30 mins by fluorescence based analysis; parameters: species or system Insect cell
Sequence of Histone deacetylase 1 (Q13547 whole entry, the tested form may be a part): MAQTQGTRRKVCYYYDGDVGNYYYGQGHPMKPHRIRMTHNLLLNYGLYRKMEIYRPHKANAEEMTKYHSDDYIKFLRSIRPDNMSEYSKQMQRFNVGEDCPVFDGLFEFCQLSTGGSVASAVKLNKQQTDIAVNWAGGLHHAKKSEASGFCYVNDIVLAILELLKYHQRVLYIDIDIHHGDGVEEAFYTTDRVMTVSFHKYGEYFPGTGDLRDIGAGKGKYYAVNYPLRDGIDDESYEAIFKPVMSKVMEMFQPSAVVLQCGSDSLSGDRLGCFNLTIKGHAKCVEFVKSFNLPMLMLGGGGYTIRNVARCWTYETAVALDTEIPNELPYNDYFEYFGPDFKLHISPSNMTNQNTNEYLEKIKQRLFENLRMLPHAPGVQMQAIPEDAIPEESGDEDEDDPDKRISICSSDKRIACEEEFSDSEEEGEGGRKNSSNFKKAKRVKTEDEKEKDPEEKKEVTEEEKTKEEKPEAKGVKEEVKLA

Nakaseomyces glabratus [4] = assay: Antifungal activity against Candida glabrata 4408 assessed as microbial growth inhibition; assay type: functional
Nakaseomyces glabratus [5] = assay: Synergetic antifungal activity against Candida glabrata 4408 assessed as microbial growth inhibition incubated for 24 hrs in the presence of fluconazole by checkerboard microdilution method; assay type: functional
Candida albicans [6] = assay: Antifungal activity against Candida albicans 0304103 infected in ICR mouse assessed as reduction in kidney fungal burden at 10 mg/kg, ip administered for 5 consecutive days; assay type: functional, organism-based; conditions: time 5.0 day
Candida albicans [7] = assay: Antifungal activity against Candida albicans 0304103 infected in ICR mouse assessed as decrease in kidney fungal burden at 10 mg/kg, ip administered for 5 consecutive days in the presence of fluconazole; assay type: functional, organism-based; conditions: time 5.0 day
Candida albicans [8] = assay: Synergetic antifungal activity against Candida albicans 9172 assessed as microbial growth inhibition incubated for 24 hrs in the presence of fluconazole by checkerboard microdilution method; assay type: functional
Candida albicans [9] = assay type: functional, 0304103; conditions: time 24 hrs
Description: Synergetic antifungal activity against Candida albicans 0304103 assessed as fractional inhibitory concentration index incubated for 24 hrs in the presence of fluconazole by checkerboard microdilution method

Candida albicans [10] = assay: Antibiofilm activity against FLC-resistant Candida albicans 0304103 assessed as reduction in fungal growth at 32 ug/mL and measured for 48 hrs by time-growth curve assay; assay type: functional, organism-based; conditions: dose 32.0 µg/ml
Candida albicans [11] = assay: Synergistic antibiofilm activity against FLC-resistant Candida albicans 0304103 assessed as inhibition of fungal growth at 32 ug/mL and measured for 48 hrs in the presence of fluconazole by time-growth curve assay; assay type: functional; parameters: scale not given: the % may be the effect or the level left; conditions: dose 32 µg/ml
Candida albicans [12] = assay: Downregulation of ADH5 expression in Candida albicans 0304103 at 32 ug/mL incubated for 24 hrs in the presence of fluconazole by RT q-PCR analysis; assay type: functional; conditions: dose 32.0 µg/ml
[Candida] auris [13] = Synergetic antifungal activity against Candida auris 0030 assessed as fractional inhibitory concentration index incubated for 24 hrs in the presence of fluconazole by checkerboard microdilution method; assay type: functional, Candidozyma auris
Cryptococcus neoformans [14] = assay: Antifungal activity against Cryptococcus neoformans H99 assessed as fungal growth inhibition incubated for 24 hrs by broth dilution method; assay type: functional
Candida albicans [15] = assay: microbe, parasite or virus in culture; assay type: functional; conditions: 0304103
Description: Antifungal activity against Candida albicans 0304103 assessed as microbial growth inhibition

Nakaseomyces glabratus [16] = assay: Synergetic antifungal activity against Candida glabrata 4408 assessed as fractional inhibitory concentration index incubated for 24 hrs in the presence of fluconazole by checkerboard microdilution method; assay type: functional
Candida albicans [17] = assay: Downregulation of ADH5 expression in Candida albicans 0304103 at 32 ug/mL incubated for 24 hrs by RT q-PCR analysis; assay type: functional; conditions: dose 32.0 µg/ml
Candida albicans [18] = assay: Antifungal activity against Candida albicans 0304103 assessed as reduction in yeast to hypha transition at 32 ug/mL incubated for 2 hrs by inverse fluorescence microscopy; assay type: functional, organism-based; conditions: dose 32.0 µg/ml
HL-60 = assay: Antiproliferative activity against human HL-60 cells incubated for 48 hrs by CCK8 assay; assay type: functional, cell-based; conditions: HL-60, 48 h
Candida albicans [19] = assay: Synergetic antifungal activity against Candida albicans 10061 assessed as microbial growth inhibition incubated for 24 hrs in the presence of fluconazole by checkerboard microdilution method; assay type: functional
[Candida] auris [20] = Synergetic antifungal activity against Candida auris 0029 assessed as fractional inhibitory concentration index incubated for 24 hrs in the presence of fluconazole by checkerboard microdilution method; assay type: functional, Candidozyma auris
Cryptococcus neoformans [21] = assay: Antifungal activity against Cryptococcus neoformans 011405 assessed as microbial growth inhibition; assay type: functional
Candida albicans [22] = assay: Downregulation of ERG11 expression in Candida albicans 0304103 at 32 ug/mL incubated for 24 hrs by RT q-PCR analysis; assay type: functional; conditions: dose 32.0 µg/ml
Candida albicans [23] = assay: microbe, parasite or virus in culture; assay type: functional; conditions: 0304103, time 24 hrs
Description: Synergetic antifungal activity against Candida albicans 0304103 assessed as microbial growth inhibition incubated for 24 hrs in the presence of fluconazole by checkerboard microdilution method

Candida albicans [24] = assay: Antifungal activity against Candida albicans 10061 assessed as microbial growth inhibition; assay type: functional
Candida albicans [25] = assay: Antibiofilm activity against FLC-resistant Candida albicans 0304103 assessed as inhibition of biofilm formation at 64 ug/mL incubated for 24 hrs by XTT reduction assay; assay type: functional, organism-based; conditions: dose 64.0 µg/ml
Candida albicans [26] = assay: Downregulation of MDR1 expression in Candida albicans 0304103 at 32 ug/mL incubated for 24 hrs by RT q-PCR analysis; assay type: functional; conditions: dose 32.0 µg/ml
Candida albicans [27] = assay: Synergetic antifungal activity against Candida albicans 10061 assessed as fractional inhibitory concentration index incubated for 24 hrs in the presence of fluconazole by checkerboard microdilution method; assay type: functional
Candida albicans [28] = assay: Synergistic antibiofilm activity against FLC-resistant Candida albicans 0304103 assessed as inhibition of biofilm formation at 64 ug/mL incubated for 24 hrs in presence of by XTT reduction assay relative to control; assay type: functional; parameters: scale not given: the % may be the effect or the level left; conditions: dose 64 µg/ml
Candida albicans [29] = assay: Antifungal activity against Candida albicans 9884 assessed as microbial growth inhibition; assay type: functional
Candida albicans [30] = assay: Downregulation of GCA1 expression in Candida albicans 0304103 at 32 ug/mL incubated for 24 hrs by RT q-PCR analysis; assay type: functional; conditions: dose 32.0 µg/ml
Candida albicans [31] = assay: Downregulation of ERG11 expression in Candida albicans 0304103 at 32 ug/mL incubated for 24 hrs in the presence of fluconazole by RT q-PCR analysis; assay type: functional; conditions: dose 32.0 µg/ml
Candida albicans [32] = assay: Downregulation of GCA1 expression in Candida albicans 0304103 at 32 ug/mL incubated for 24 hrs in the presence of fluconazole by RT q-PCR analysis; assay type: functional; conditions: dose 32.0 µg/ml
Cryptococcus neoformans [33] = assay: Synergetic antifungal activity against Cryptococcus neoformans 011405 assessed as fractional inhibitory concentration index incubated for 24 hrs in the presence of fluconazole by checkerboard microdilution method; assay type: functional
Candida albicans [34] = assay: Downregulation of CDR1 expression in Candida albicans 0304103 at 32 ug/mL incubated for 24 hrs in the presence of fluconazole by RT q-PCR analysis; assay type: functional; conditions: dose 32.0 µg/ml
HEL = assay: Antiproliferative activity against human HEL cells incubated for 48 hrs by CCK8 assay; assay type: functional, cell-based
Candida albicans [35] = assay: Downregulation of MDR1 expression in Candida albicans 0304103 at 32 ug/mL incubated for 24 hrs in the presence of fluconazole by RT q-PCR analysis; assay type: functional; conditions: dose 32.0 µg/ml
Candida albicans [36] = assay: Synergistic antifungal activity against Candida albicans 0304103 assessed as reduction in yeast to hypha transition at 32 ug/mL incubated for 2 hrs in the presence of fluconazole by inverse fluorescence microscopy; assay type: functional, organism-based; conditions: dose 32.0 µg/ml
[Candida] auris [37] = Antifungal activity against Candida auris 0029 assessed as microbial growth inhibition; assay type: functional; conditions: Candidozyma auris
Candida albicans [38] = assay: Antifungal activity against Candida albicans 9172 assessed as microbial growth inhibition; assay type: functional
in vitro = conditions: human, HUVEC cells
Description: Cytotoxicity against HUVECs assessed as inhibition of cell growth incubated for 48 hrs by CCK8 assay

Candida albicans [39] = assay: Synergetic antifungal activity against Candida albicans 9884 assessed as microbial growth inhibition incubated for 24 hrs in the presence of fluconazole by checkerboard microdilution method; assay type: functional
Candida albicans [40] = assay: Downregulation of CDR1 expression in Candida albicans 0304103 at 32 ug/mL incubated for 24 hrs by RT q-PCR analysis; assay type: functional; conditions: dose 32.0 µg/ml
[Candida] auris [41] = Synergetic antifungal activity against Candida auris 0030 assessed as microbial growth inhibition incubated for 24 hrs in the presence of fluconazole by checkerboard microdilution method; assay type: functional; conditions: Candidozyma auris
Candida albicans [42] = assay: Antifungal activity against Candida albicans SC5314 assessed as fungal growth inhibition incubated for 24 hrs by broth dilution method; assay type: functional
Cryptococcus neoformans [43] = assay: Synergetic antifungal activity against Cryptococcus neoformans 011405 assessed as microbial growth inhibition incubated for 24 hrs in the presence of fluconazole by checkerboard microdilution method; assay type: functional
[Candida] auris [44] = Antifungal activity against Candida auris 0030 assessed as microbial growth inhibition; assay type: functional; conditions: Candidozyma auris
Histone deacetylase = assay: Inhibition of total HDAC in human HUVEC cells using Boc-Lys(Ac)-AMC as substrate preincubated for 12 hrs followed by substrate addition measured after 6 hrs by microtiter plate reader analysis; assay type: cell-based
Candida albicans [45] = assay: Synergetic antifungal activity against Candida albicans 9172 assessed as fractional inhibitory concentration index incubated for 24 hrs in the presence of fluconazole by checkerboard microdilution method; assay type: functional
Candida albicans [46] = assay: Downregulation of CDR2 expression in Candida albicans 0304103 at 32 ug/mL incubated for 24 hrs by RT q-PCR analysis; assay type: functional; conditions: dose 32.0 µg/ml

Cc1nnc2n1-c1sc3c(c1C(c1ccc(Cl)cc1)=N[C@H]2CC(=O)NCc1ccc(C(=O)NO)cc1)CCCC3
pIC50 (K562): < 5.00 | Activity (Candida albicans [1]): Active | fractional inhibitory concentration index (FICI) (Candida albicans [2]): 0.19 | MIC80 ([Candida] auris [3]): 32 µg/mL | pIC50 (Histone deacetylase 1): 5.62 | MIC80 (Nakaseomyces glabratus [4]): 8 µg/mL (≈ 13.9 µM) | MIC80 (Nakaseomyces glabratus [5]): 2 µg/mL | Activity (Candida albicans [6]): inactive | Activity (Candida albicans [7]): Active | MIC80 (Candida albicans [8]): 4 µg/mL | fractional inhibitory concentration index (FICI) (Candida albicans [9]): 0.063 | Activity (Candida albicans [10]): inactive | Activity (Candida albicans [11]): 100% | Activity (Candida albicans [12]): Active | fractional inhibitory concentration index (FICI) ([Candida] auris [13]): 1.5 | MIC80 (Cryptococcus neoformans [14]): 8 µg/mL (≈ 13.9 µM) | MIC80 (Candida albicans [15]): > 64 µg/mL | fractional inhibitory concentration index (FICI) (Nakaseomyces glabratus [16]): 0.28 | Activity (Candida albicans [17]): Active | Activity (Candida albicans [18]): inactive | pIC50 (HL-60): 5.51 | MIC80 (Candida albicans [19]): 2 µg/mL | fractional inhibitory concentration index (FICI) ([Candida] auris [20]): 1.5 | MIC80 (Cryptococcus neoformans [21]): 32 µg/mL (≈ 55.6 µM) | Activity (Candida albicans [22]): Active | MIC80 (Candida albicans [23]): 2 µg/mL (≈ 3.48 µM) | MIC80 (Candida albicans [24]): > 64 µg/mL | Activity (Candida albicans [25]): inactive | Activity (Candida albicans [26]): Active | fractional inhibitory concentration index (FICI) (Candida albicans [27]): 0.047 | Activity (Candida albicans [28]): 80% | MIC80 (Candida albicans [29]): > 64 µg/mL | Activity (Candida albicans [30]): Active | Activity (Candida albicans [31]): Active | Activity (Candida albicans [32]): Active | fractional inhibitory concentration index (FICI) (Cryptococcus neoformans [33]): 0.31 | Activity (Candida albicans [34]): Active | pIC50 (HEL): 5.14 | Activity (Candida albicans [35]): Active | Activity (Candida albicans [36]): Active | MIC80 ([Candida] auris [37]): > 64 µg/mL | MIC80 (Candida albicans [38]): > 64 µg/mL | IC50 at 48 h (in vitro): 18 µM | MIC80 (Candida albicans [39]): 4 µg/mL | Activity (Candida albicans [40]): Active | MIC80 ([Candida] auris [41]): 32 µg/mL | MIC80 (Candida albicans [42]): > 64 µg/mL | MIC80 (Cryptococcus neoformans [43]): 2 µg/mL | MIC80 ([Candida] auris [44]): > 64 µg/mL | IC50 (Histone deacetylase): 4.3 µM | fractional inhibitory concentration index (FICI) (Candida albicans [45]): 0.07 | Activity (Candida albicans [46]): Active
